Results as given in patent US7112680B2, “Heterocyclic hydrazones for use as anti-cancer agents” (Austria Wirtschaftsservice Gesellschaft MIT Beschrankter …, priority 2000, dated 2006).
Like-named read-outs stand apart in the source and are kept apart here.

Experiments:
[1] = system: Burkitt's lymphoma (CA 46, ATCC No. CRL 1648); experiment: Inhibition of tumor cell growth, MTT-assay, Burkitt's lymphoma; format: cell-based, human
Method: (§1) The KB cell lines were grown in Dulbecco's modified Eagle's medium (4,5 g glucose/l). To the cultures of KB-C1 cells 1 μg of colchicine/ml, and to the hydroxyurea-resistant KB-HU cells 1 mM hydroxyurea was added every other week. […] 3,000 - 10,000 cells in 200 μl medium were seeded per well into 96-well plates. […] Approximately 10,000 cells per 100 μl were seeded in 96-well plates. […] The substances were dissolved in dimethylsulfoxide (DMSO). […] Subsequently, the samples were fixed, washed, and the absorption was determined by a microplate reader.

[2] = system: HeLa (epitheloid cervix carcinoma); experiment: Inhibition of tumor cell growth, SRB-assay, HeLa; format: cell-based, human
[3] = system: HT-29 (colon adenocarcinoma); experiment: Inhibition of tumor cell growth, SRB-assay, HT-29; format: cell-based, human
Method: as §1

MEXF 276L (melanoma) = experiment: Inhibition of tumor cell growth, SRB-assay, MEXF 276L; format: cell-based, human; conditions: Table 2, 72 hours
Method: as §1

[4] = system: CCRF-CEM (acute lymphoblastic leukemia); experiment: Inhibition of tumor cell growth, MTT-assay, CCRF-CEM; format: cell-based, human; conditions: Table 2, 72 hours
[5] = system: KB-3-1 (human oral epidermoid carcinoma); experiment: Inhibition of tumor cell growth, SRB-assay, KB-3-1; format: cell-based; conditions: read-out: In vitro-activity against human tumor cell lines, KB-3-1
Method: (§2) In order to obtain information about the growth-inhibiting action on tumor cells, the inhibition of the growth of the following human tumor cells was determined: Burkitt's lymphoma (CA 46, ATCC No. CRL 1648), CCRF-CEM (acute lymphoblastic leukemia, ATCC No. CCL 119), K562 (chronic myelogenous leukemia, ATTC No. CCL 243), HeLa (epitheloid cervix carcinoma, ATCC No. CCL 2), MEXF 276L (melanoma), HT-29 (colon adenocarcinoma, ATCC No. HTB 38), KB-3-1 (human oral epidermoid carcinoma, CTCC No. CCL 17), KB-HU hydroxyurea-resistant, multidrug-resistant KB-C1 cells (Akiyama et al, Cell. Mol Genet., 11:117–126, 1985). Burkitt's, CCRF-CEM, HeLa and MEXF 276L cells were grown in RPMI 1640, HT-29 cells in McCoy's 5A medium. The KB cell lines were grown in Dulbecco's modified Eagle's medium (4,5 g glucose/l). To the cultures of KB-C1 cells 1 μg of colchicine/ml, and to the hydroxyurea-resistant KB-HU cells 1 mM hydroxyurea was added every other week. The media were supplemented with 10% fetal calf serum (except Burkitt's lymphoma cells with 15%), 2 mM glutamine, 50 units/ml penicillin and 50 μg/ml streptomycin. Inhibition of growth of HeLa, HT-29, KB and MEXF 276L cells was detected by the SRB-assay (Skehan et al, J. Natl Cancer Inst., 82:1107–1112, 1990). 3,000 - 10,000 cells in 200 μl medium were seeded per well into 96-well plates. Dose-response curves for CCRF-CEM and Burkitt's lymphoma cells were effected by an MTT-assay (Mosman, J. Immunol Methods, 65:55–63, 1983) from Boehringer Mannheim, Mannheim, Germany. Approximately 10,000 cells per 100 μl were seeded in 96-well plates. After an initial incubation of four hours, various substance concentrations were added, and the cells were incubated at 37° C. in a water-saturated atmosphere of 95% air and 5% CO2 for 72 hours. The substances were dissolved in dimethylsulfoxide (DMSO). The concentration of DMSO was 0.5%, and this was not toxic to the cells. Subsequently, the samples were fixed, washed, and the absorption was determined by a microplate reader.

[6] = system: KB-HU hydroxyurea-resistant cells; experiment: Inhibition of tumor cell growth, SRB-assay, KB-HU; format: cell-based, human; conditions: Table 4, 72 hours, read-out: In vitro-activity against human tumor cell lines, KB-HU
Method: as §2

[7] = system: multidrug-resistant KB-C1 cells; experiment: Inhibition of tumor cell growth, SRB-assay, KB-C1; format: cell-based, human; conditions: read-out: In vitro-activity against human tumor cell lines, KB-C1
Method: as §2

[8] = system: human tumor grafts (cell lines of FIG. 1); experiment: Colony forming assay (two-layer soft agar); format: cell-based; conditions: for IC50 / IC90 / Mean IC70: mean values of all cell lines tested in FIG. 1, continuous exposure 3 to 6 days
Method: An excellent correlation of drug response in patients and the colony forming assay has been found (Scholz et al, Eur. J. Cancer 25:901–905, 1990). Solid human tumors were grown as grafts in nude mice, removed from the latter, mechanically comminuted and subsequently incubated in an enzyme cocktail consisting of collagenase (1.2–1.8 U/ml), DNAse (375 U/ml) and hyaluronidase (29 U/ml) in RPMI 1640 medium at 37° C. for 30 minutes. The cell mixture was passed through sieves of 200 μm and 50 μm mesh size and washed thereafter twice with PBS (phosphate buffered saline). The percentage of live cells was determined using a Neubauer counting chamber and trypan blue staining.
The colony forming assay was performed according to a two-layer agar technique introduced and modified by Hamburger and Salmon (Hamburger and Salmon, Science, 197:461–463, 1977). The bottom layer consisted of 0.2 ml of Iscoves's Modified Dulbecco's medium with 20% fetal calf serum and 0.75% agar. 8×10^3 to 1.6×10^4 cells were added to the same medium and 0.4% agar and plated in 24-multiwell plates onto the base layer. One day after the plating (with continuous exposure), the substances were added in 0.2 ml medium. Each plate included six controls containing the solvent only, and the treated groups contained 6 concentrations of the substances, each in triplicate. Cultures were incubated at 37° C. and 7% CO2 in a water-saturated atmosphere for 3 to 6 days, depending on the doubling time of the tumor cells. At the time of maximum colony formation with a size of […], counts were performed with an automatic image analysis system. 24 h prior to counting, live colonies were stained with a sterile aqueous solution of 2-(4-iodophenyl)-3-(4-nitrophenyl)-5-phenyltetrazolium chloride (1 mg/ml, 100 μl/well). The results of the tests are given in FIG. 1, and in the following Table 5, respectively. […] Columns pointing towards the right show a slighter than average activity.

[9] = system: K562 (chronic myelogenous leukemia); experiment: Inhibition of tumor cell growth, K562; format: cell-based, human; conditions: Table 1; 72 hours
Method: as §2

[10] = Table 2, 72 hours, read-out: IC50 Burkitts
[11] = Table 2, 72 hours, read-out: IC50 HeLa (converted)
[12] = Table 2, 72 hours, read-out: IC50 HT-29 (converted)
[13] = Table 4, 72 hours, read-out: In vitro-activity against human tumor cell lines, Burkitts
[14] = Table 4, 72 hours, read-out: In vitro-activity against human tumor cell lines, HeLa
[15] = Table 4, 72 hours, read-out: In vitro-activity against human tumor cell lines, HT-29

SMILES	IC50 [1, 10] [nM]	IC50 [2, 11] [nM]	IC50 [3, 12] [nM]	IC50 (MEXF 276L (melanoma); read-out: IC50 MEXF276L) [nM]	IC50 [4] [nM]	further results
CC(=NNc1nc2ccccc2o1)c1cc(C)ncn1 [Ib-10]	40	210	120	1220	220	–
CC(=NNc1nc2ccccc2o1)c1ccc(C)nn1 [Ib-5]	840	1610	1040	2250	460	–
CC(=NNc1nc2ccccc2o1)c1ncccn1 [Ib-27]	30	180	270	700	130	–
CC(=NNc1nc2ccccc2n1C)c1cc(Cl)ccn1 [Id-4, 1-(4-Chloro-2-pyridyl)-1-ethanone-1-(1-methyl-1H-benzo[d]imidazol-2-yl)-hydrazone]	–	–	–	–	–	IC50 ([1]; Homo sapiens, CA46, Table 4, 72 hours, read-out: In vitro-activity against human tumor cell lines, Burkitts): 4 nM; IC50 ([2]; Homo sapiens, HeLa, Table 4, 72 hours, read-out: In vitro-activity against human tumor cell lines, HeLa): 170 nM; IC50 ([3]; Homo sapiens, HT-29, Table 4, 72 hours, read-out: In vitro-activity against human tumor cell lines, HT-29): 520 nM; IC50 ([5]; Homo sapiens, KB 3-1, Table 4, 72 hours): 71 nM; IC50 ([6]; Homo sapiens): 270 nM; IC50 ([7]; Homo sapiens, KBC-1, Table 4, 72 hours): 90 nM; IC50 ([8]; Homo sapiens): 301 nM; IC90 ([8]; Homo sapiens): 4290 nM; tumor type selectivity ([8]; colony forming assay, IC70 pattern, FIG. 1): selectivity for colon, breast, ovarian, and uterus tumors; Mean IC70 [8]: 956 nM
Cn1c(NN=C(Cc2ccccc2)c2ccccn2)nc2ccccc21 [Ia-33]	–	–	–	–	–	IC50 [9]: 120 nM; IC50 ([2]; Table 1, 72 hours, read-out: IC50 HeLa (converted)): 24 nM; IC50 ([3]; Table 1, 72 hours, read-out: IC50 HT-29 (converted)): 14100 nM
CC(=NNc1nc2ccccc2o1)c1cccnn1 [Ib-3]	1340	1250	1770	1960	720	–
CC(=NNc1nc2ccccc2o1)c1nccc2ccccc12 [Ib-21]	200	340	1930	1560	350	–
CC(=NNc1nc2ccccc2[nH]1)c1ncccn1 [Ib-25]	220	630	420	960	200	–
CC(=NNc1nc2ccccc2n1C)c1ccc(-c2ccccc2)cn1 [Id-16]	–	–	–	–	–	IC50 [1, 13]: 30 nM; IC50 [2, 14]: 180 nM; IC50 [3, 15]: 250 nM; IC50 ([5]; Table 4, 72 hours): 250 nM; IC50 [6]: 190 nM; IC50 ([7]; Table 4, 72 hours): 180 nM; IC50 [8]: 965 nM; IC90 [8]: 7450 nM; Mean IC70 [8]: 2084 nM
CC(=NNc1nc2ccccc2n1C)c1cccc(Cl)n1 [Id-5]	–	–	–	–	–	IC50 [1, 13]: 12 nM; IC50 [2, 14]: 190 nM; IC50 [3, 15]: 320 nM; IC50 ([5]; Table 4, 72 hours): 7 nM; IC50 [6]: 20 nM; IC50 ([7]; Table 4, 72 hours): 30 nM; IC50 [8]: 3300 nM; IC90 [8]: 9380 nM; Mean IC70 [8]: 5740 nM
CC(=NNc1nc2ccccc2o1)c1ccc2ccccc2n1 [Ib-19]	5490	4530	7760	> 10000	7040	–
CC(=NNc1nc2ccccc2[nH]1)c1ccncn1 [Ib-6, 1-(4-Pyrimidinyl)-1-ethanone-1-(1H-benzo[d]imidazol-2-yl)-hydrazone]	–	–	–	–	–	IC50 ([1]; Homo sapiens, CA46, Table 2, 72 hours, read-out: IC50 Burkitts): 560 nM; IC50 ([2]; Homo sapiens, HeLa, Table 2, 72 hours, read-out: IC50 HeLa (converted)): 880 nM; IC50 ([3]; Homo sapiens, HT-29, Table 2, 72 hours, read-out: IC50 HT-29 (converted)): 570 nM; IC50 (MEXF 276L (melanoma); Homo sapiens, MEXF276L): 910 nM; IC50 ([4]; Homo sapiens, CCRF-CEM): 410 nM
CC(=NNc1nc2ccccc2o1)c1ccncn1 [Ib-8]	140	410	230	1300	340	–
CC(=NNc1nc2ccccc2[nH]1)c1ccc(C)nn1 [Ib-4]	1870	1990	1960	2360	1300	–
CC(=NNc1nc2ccccc2[nH]1)c1cc(C)ncn1 [Ib-9]	390	890	360	1140	660	–
CC(=NNc1nc2ccccc2[nH]1)c1cccnn1 [Ib-1]	840	1230	2060	2140	980	–
CC(=NNc1nc2ccccc2o1)c1nccnc1C [Ib-15]	910	1870	2150	5380	1300	–
CC(=NNc1nc2ccccc2[nH]1)c1cnc(C)cn1 [Ib-16]	1220	1490	880	2000	840	–
CC(=NNc1nc2ccccc2n1C)c1ncccc1N(C)C [Id-11]	–	–	–	–	–	IC50 [1, 13]: 2 nM; IC50 [2, 14]: 20 nM; IC50 [3, 15]: 160 nM; IC50 ([5]; Table 4, 72 hours): 8 nM; IC50 [6]: 240 nM; IC50 ([7]; Table 4, 72 hours): 60 nM; IC50 [8]: 137 nM; IC90 [8]: 2900 nM; Mean IC70 [8]: 397 nM
CC(=NNc1nc2ccccc2[nH]1)c1nccnc1C [Ib-14]	3370	3530	2230	4240	2170	–
CC(=NNc1nc2ccccc2n1C)c1cc(-c2ccccc2)ccn1 [Id-15]	–	–	–	–	–	IC50 [1, 13]: 30 nM; IC50 [2, 14]: 40 nM; IC50 [3, 15]: 50 nM; IC50 ([5]; Table 4, 72 hours): 140 nM; IC50 [6]: 120 nM; IC50 ([7]; Table 4, 72 hours): 230 nM; IC50 [8]: 429 nM; IC90 [8]: 5670 nM; Mean IC70 [8]: 1017 nM
CC(=NNc1nc2ccccc2o1)c1cnc(C)cn1 [Ib-17]	150	370	280	1660	620	–
